# Laboratory results from patent publication US4228292A, “N-Substituted benzothiazolines and benzoxazolines and their use as herbicides and plant growth regulants” (Monsanto Company, priority 1978, dated 1980).
# Legend:
# [1] = system: soybean plants; experiment: plant growth regulating activity on soybean plants; assay type: in vivo, variety Williams
# Experimental: A number of soybean plants, variety Williams, were grown from seeds in plastic pots in the greenhouse for a period of one week at which time the plants are thinned to one plant per pot. When the second trifoliate leaf (three weeks) was fully expanded, the plants were treated with a solution of the active ingredient in acetone and water. Aqueous Tween 20 was used as a surfactant.
# When the fifth trifoliate leaf (four to five weeks) was fully expanded, the treated plants were compared with the non-treated control plants and the observations recorded.
# [2] = system: Soybean; experiment: post-emergent herbicidal test; assay type: in vivo; settings: L, 4 WAT; also: ranges in brackets are in %
# Experimental: (§1) The post-emergent tests were conducted as follows:
# (§2) The herbicidal active ingredients are applied in spray form to two or three-week old specimens of various plant species. The spray, a solution or wettable powder suspension containing the appropriate rate of herbicidal active ingredient to give the desired test rate and a surfactant, is applied to the plants. The treated plants are placed in a greenhouse and approximately two or four weeks later the effects are observed and recorded. The results are shown in Tables IX and X in which the post-emergent herbicidal rating code is as follows: […]
# [3] = system: Sugar Beet; experiment: post-emergent herbicidal test; assay type: in vivo; settings: M, 4 WAT; also: ranges in brackets are in %
# Experimental: as §1, §2
# [4] = system: Rice; experiment: post-emergent herbicidal test; assay type: in vivo; settings: O, 4 WAT; also: ranges in brackets are in %
# Experimental: as §1, §2
# [5] = system: Panicum Spp; experiment: post-emergent herbicidal test; assay type: in vivo; settings: S, 4 WAT; also: ranges in brackets are in %
# Experimental: as §1, §2
# [6] = system: Hemp Sesbania; experiment: post-emergent herbicidal test; assay type: in vivo; settings: R, 4 WAT; also: ranges in brackets are in %
# Experimental: as §1, §2
# [7] = system: Wild Buckwheat; experiment: post-emergent herbicidal test; assay type: in vivo; settings: Q, 4 WAT; also: ranges in brackets are in %
# Experimental: as §1, §2
# [8] = system: Crabgrass; experiment: post-emergent herbicidal test; assay type: in vivo; settings: T, 4 WAT; also: ranges in brackets are in %
# Experimental: as §1, §2
# [9] = system: Sorghum; experiment: post-emergent herbicidal test; assay type: in vivo; settings: P, 4 WAT; also: ranges in brackets are in %
# Experimental: as §1, §2
# [10] = system: Wheat; experiment: post-emergent herbicidal test; assay type: in vivo; settings: N, 4 WAT; also: ranges in brackets are in %
# Experimental: as §1, §2
# [11] = system: Soybean; experiment: pre-emergent herbicidal test; assay type: in vivo; settings: L; also: ranges in brackets are in %
# Experimental: (§3) The pre-emergent test was conducted as follows:
# (§4) A good grade of top soil was placed in aluminum pans and compactd to a depth of 0.95 to 1.27 cm. from the top of the pan. On the top of the soil was placed a predetermined number of seeds or vegetative propagules of various plant species. The soil required to level fill the pans after seeding or adding vegetative propagules was weighed into a pan. A known amount of the herbicidal active ingredient applied in a solvent or as a wettable powder and the soil were thoroughly mixed, and used as a cover layer for prepared pans. After treatment the pans were moved into a greenhouse bench where they were watered from below as needed to give adequate moisture for germination and growth.
# (§5) A herbicidal rating code was used to signify the extent of phytotoxicity of each species. The ratings are defined as follows: […]
# [12] = system: Sugar Beet; experiment: pre-emergent herbicidal test; assay type: in vivo; settings: M; also: ranges in brackets are in %
# Experimental: as §3, §4, §5
# [13] = system: Rice; experiment: pre-emergent herbicidal test; assay type: in vivo; settings: O; also: ranges in brackets are in %
# Experimental: as §3, §4, §5
# [14] = system: Panicum Spp; experiment: pre-emergent herbicidal test; assay type: in vivo; settings: S; also: ranges in brackets are in %
# Experimental: as §3, §4, §5
# [15] = system: Hemp Sesbania; experiment: pre-emergent herbicidal test; assay type: in vivo; settings: R; also: ranges in brackets are in %
# Experimental: as §3, §4, §5
# [16] = system: Wild Buckwheat; experiment: pre-emergent herbicidal test; assay type: in vivo; settings: Q; also: ranges in brackets are in %
# Experimental: as §3, §4, §5
# [17] = system: Crabgrass; experiment: pre-emergent herbicidal test; assay type: in vivo; settings: T; also: ranges in brackets are in %
# Experimental: as §3, §4, §5
# [18] = system: Sorghum; experiment: pre-emergent herbicidal test; assay type: in vivo; settings: P; also: ranges in brackets are in %
# Experimental: as §3, §4, §5
# [19] = system: Wheat; experiment: pre-emergent herbicidal test; assay type: in vivo; settings: N; also: ranges in brackets are in %
# Experimental: as §3, §4, §5
smiles,measurement,setting,value
COC(=N)C(C)n1c(=O)sc2ccccc21 (centres unmarked) [Compound 32],plant growth regulant observations,[1]; 0.112 kg/h,Inhibition of dry weight.
COC(=N)Cn1c(=O)sc2cc(Br)ccc21 [Compound 20],plant growth regulant observations,[1]; 0.112 kg/h,Leaf alteration of new growth.
COC(=N)Cn1c(=O)oc2ccccc21 [Compound 22],plant growth regulant observations,[1]; 0.56 kg/h,Leaf alteration of new growth.
COC(=N)CCn1c(=O)sc2cc(Br)ccc21 [Compound 36],plant growth regulant observations,[1]; 0.112 kg/h,Leaf alteration of new growth.
same,plant growth regulant observations,[1]; 0.56 kg/h,Leaf alteration of new growth.
COC(=N)Cn1c(=O)oc2ccccc21 [Compound 35],plant growth regulant observations,[1]; 0.112 kg/h,No response.
same,plant growth regulant observations,[1]; 0.56 kg/h,No response.
COC(=N)Cn1c(=O)sc2ccccc21 [Compound 11],post-emergent herbicidal rating,[2]; 1.12 kg/h,1 (25-49)
same,post-emergent herbicidal rating,[2]; 5.6 kg/h,3 (75-99)
same,post-emergent herbicidal rating,[3]; 1.12 kg/h,2 (50-74)
same,post-emergent herbicidal rating,[3]; 5.6 kg/h,4 (100)
same,post-emergent herbicidal rating,[4]; 1.12 kg/h,0 (0-24)
same,post-emergent herbicidal rating,[4]; 5.6 kg/h,0 (0-24)
same,post-emergent herbicidal rating,[5]; 1.12 kg/h,0 (0-24)
same,post-emergent herbicidal rating,[5]; 5.6 kg/h,1 (25-49)
same,post-emergent herbicidal rating,[6]; 1.12 kg/h,1 (25-49)
same,post-emergent herbicidal rating,[6]; 5.6 kg/h,3 (75-99)
same,post-emergent herbicidal rating,[7]; 1.12 kg/h,2 (50-74)
same,post-emergent herbicidal rating,[7]; 5.6 kg/h,4 (100)
same,post-emergent herbicidal rating,[8]; 1.12 kg/h,0 (0-24)
same,post-emergent herbicidal rating,[8]; 5.6 kg/h,0 (0-24)
same,post-emergent herbicidal rating,[9]; 1.12 kg/h,0 (0-24)
same,post-emergent herbicidal rating,[9]; 5.6 kg/h,1 (25-49)
same,post-emergent herbicidal rating,[10]; 1.12 kg/h,1 (25-49)
same,post-emergent herbicidal rating,[10]; 5.6 kg/h,1 (25-49)
same,pre-emergent herbicidal rating,"[11]; 1.12 kg/h, 4 WAT",2 (50-74)
same,pre-emergent herbicidal rating,"[11]; 5.6 kg/h, 4 WAT",3 (75-100)
same,pre-emergent herbicidal rating,"[12]; 1.12 kg/h, 4 WAT",1 (25-49)
same,pre-emergent herbicidal rating,"[12]; 5.6 kg/h, 4 WAT",2 (50-74)
same,pre-emergent herbicidal rating,"[13]; 1.12 kg/h, 4 WAT",0 (0-24)
same,pre-emergent herbicidal rating,"[13]; 5.6 kg/h, 4 WAT",0 (0-24)
same,pre-emergent herbicidal rating,"[14]; 1.12 kg/h, 4 WAT",0 (0-24)
same,pre-emergent herbicidal rating,"[14]; 5.6 kg/h, 4 WAT",2 (50-74)
same,pre-emergent herbicidal rating,"[15]; 1.12 kg/h, 4 WAT",1 (25-49)
same,pre-emergent herbicidal rating,"[15]; 5.6 kg/h, 4 WAT",3 (75-100)
same,pre-emergent herbicidal rating,"[16]; 1.12 kg/h, 4 WAT",1 (25-49)
same,pre-emergent herbicidal rating,"[16]; 5.6 kg/h, 4 WAT",3 (75-100)
same,pre-emergent herbicidal rating,"[17]; 1.12 kg/h, 4 WAT",0 (0-24)
same,pre-emergent herbicidal rating,"[17]; 5.6 kg/h, 4 WAT",1 (25-49)
same,pre-emergent herbicidal rating,"[18]; 1.12 kg/h, 4 WAT",0 (0-24)
same,pre-emergent herbicidal rating,"[18]; 5.6 kg/h, 4 WAT",0 (0-24)
same,pre-emergent herbicidal rating,"[19]; 1.12 kg/h, 4 WAT",1 (25-49)
same,pre-emergent herbicidal rating,"[19]; 5.6 kg/h, 4 WAT",1 (25-49)
COC(=N)Cn1c(=O)sc2cc(Br)ccc21 [Compound 33],pre-emergent herbicidal rating,"[11]; 0.28 kg/h, 2 WAT",0 (0-24)
same,pre-emergent herbicidal rating,"[11]; 1.12 kg/h, 2 WAT",0 (0-24)
same,pre-emergent herbicidal rating,"[11]; 5.6 kg/h, 4 WAT",1 (25-49)
same,pre-emergent herbicidal rating,"[12]; 0.28 kg/h, 2 WAT",0 (0-24)
same,pre-emergent herbicidal rating,"[12]; 1.12 kg/h, 2 WAT",0 (0-24)
same,pre-emergent herbicidal rating,"[12]; 5.6 kg/h, 4 WAT",1 (25-49)
same,pre-emergent herbicidal rating,"[13]; 0.28 kg/h, 2 WAT",0 (0-24)
same,pre-emergent herbicidal rating,"[13]; 1.12 kg/h, 2 WAT",0 (0-24)
same,pre-emergent herbicidal rating,"[13]; 5.6 kg/h, 4 WAT",0 (0-24)
same,pre-emergent herbicidal rating,"[14]; 0.28 kg/h, 2 WAT",0 (0-24)
same,pre-emergent herbicidal rating,"[14]; 1.12 kg/h, 2 WAT",0 (0-24)
same,pre-emergent herbicidal rating,"[14]; 5.6 kg/h, 4 WAT",0 (0-24)
same,pre-emergent herbicidal rating,"[15]; 0.28 kg/h, 2 WAT",0 (0-24)
same,pre-emergent herbicidal rating,"[15]; 1.12 kg/h, 2 WAT",0 (0-24)
same,pre-emergent herbicidal rating,"[15]; 5.6 kg/h, 4 WAT",0 (0-24)
same,pre-emergent herbicidal rating,"[16]; 0.28 kg/h, 2 WAT",0 (0-24)
same,pre-emergent herbicidal rating,"[16]; 1.12 kg/h, 2 WAT",0 (0-24)
same,pre-emergent herbicidal rating,"[16]; 5.6 kg/h, 4 WAT",1 (25-49)
same,pre-emergent herbicidal rating,"[17]; 0.28 kg/h, 2 WAT",0 (0-24)
same,pre-emergent herbicidal rating,"[17]; 1.12 kg/h, 2 WAT",0 (0-24)
same,pre-emergent herbicidal rating,"[17]; 5.6 kg/h, 4 WAT",0 (0-24)
same,pre-emergent herbicidal rating,"[18]; 0.28 kg/h, 2 WAT",0 (0-24)
same,pre-emergent herbicidal rating,"[18]; 1.12 kg/h, 2 WAT",0 (0-24)
same,pre-emergent herbicidal rating,"[18]; 5.6 kg/h, 4 WAT",0 (0-24)
same,pre-emergent herbicidal rating,"[19]; 0.28 kg/h, 2 WAT",0 (0-24)
same,pre-emergent herbicidal rating,"[19]; 1.12 kg/h, 2 WAT",0 (0-24)
same,pre-emergent herbicidal rating,"[19]; 5.6 kg/h, 4 WAT",0 (0-24)
same,plant growth regulant observations,[1]; 0.112 kg/h,Inhibition of dry weight.
CCOC(=N)Cn1c(=O)sc2ccccc21 [Compound 12],post-emergent herbicidal rating,[2]; 0.28 kg/h,1 (25-49)
same,post-emergent herbicidal rating,[2]; 1.12 kg/h,1 (25-49)
same,post-emergent herbicidal rating,[2]; 5.6 kg/h,2 (50-74)
same,post-emergent herbicidal rating,[3]; 0.28 kg/h,1 (25-49)
same,post-emergent herbicidal rating,[3]; 1.12 kg/h,2 (50-74)
same,post-emergent herbicidal rating,[3]; 5.6 kg/h,3 (75-99)
same,post-emergent herbicidal rating,[4]; 0.28 kg/h,0 (0-24)
same,post-emergent herbicidal rating,[4]; 1.12 kg/h,0 (0-24)
same,post-emergent herbicidal rating,[4]; 5.6 kg/h,0 (0-24)
same,post-emergent herbicidal rating,[5]; 0.28 kg/h,0 (0-24)
same,post-emergent herbicidal rating,[5]; 1.12 kg/h,0 (0-24)
same,post-emergent herbicidal rating,[5]; 5.6 kg/h,0 (0-24)
same,post-emergent herbicidal rating,[6]; 0.28 kg/h,1 (25-49)
same,post-emergent herbicidal rating,[6]; 1.12 kg/h,2 (50-74)
same,post-emergent herbicidal rating,[6]; 5.6 kg/h,3 (75-99)
same,post-emergent herbicidal rating,[7]; 0.28 kg/h,1 (25-49)
same,post-emergent herbicidal rating,[7]; 1.12 kg/h,2 (50-74)
same,post-emergent herbicidal rating,[7]; 5.6 kg/h,3 (75-99)
same,post-emergent herbicidal rating,[8]; 0.28 kg/h,0 (0-24)
same,post-emergent herbicidal rating,[8]; 1.12 kg/h,0 (0-24)
same,post-emergent herbicidal rating,[8]; 5.6 kg/h,0 (0-24)
same,post-emergent herbicidal rating,[9]; 0.28 kg/h,0 (0-24)
same,post-emergent herbicidal rating,[9]; 1.12 kg/h,0 (0-24)
same,post-emergent herbicidal rating,[9]; 5.6 kg/h,0 (0-24)
same,post-emergent herbicidal rating,[10]; 0.28 kg/h,0 (0-24)
same,post-emergent herbicidal rating,[10]; 1.12 kg/h,0 (0-24)
same,post-emergent herbicidal rating,[10]; 5.6 kg/h,1 (25-49)
same,pre-emergent herbicidal rating,"[11]; 1.12 kg/h, 4 WAT",1 (25-49)
same,pre-emergent herbicidal rating,"[11]; 5.6 kg/h, 4 WAT",2 (50-74)
same,pre-emergent herbicidal rating,"[12]; 1.12 kg/h, 4 WAT",3 (75-100)
same,pre-emergent herbicidal rating,"[12]; 5.6 kg/h, 4 WAT",3 (75-100)
same,pre-emergent herbicidal rating,"[13]; 1.12 kg/h, 4 WAT",0 (0-24)
same,pre-emergent herbicidal rating,"[13]; 5.6 kg/h, 4 WAT",0 (0-24)
same,pre-emergent herbicidal rating,"[14]; 1.12 kg/h, 4 WAT",0 (0-24)
same,pre-emergent herbicidal rating,"[14]; 5.6 kg/h, 4 WAT",0 (0-24)
same,pre-emergent herbicidal rating,"[15]; 1.12 kg/h, 4 WAT",1 (25-49)
same,pre-emergent herbicidal rating,"[15]; 5.6 kg/h, 4 WAT",2 (50-74)
same,pre-emergent herbicidal rating,"[16]; 1.12 kg/h, 4 WAT",1 (25-49)
same,pre-emergent herbicidal rating,"[16]; 5.6 kg/h, 4 WAT",1 (25-49)
same,pre-emergent herbicidal rating,"[17]; 1.12 kg/h, 4 WAT",0 (0-24)
same,pre-emergent herbicidal rating,"[17]; 5.6 kg/h, 4 WAT",0 (0-24)
same,pre-emergent herbicidal rating,"[18]; 1.12 kg/h, 4 WAT",0 (0-24)
same,pre-emergent herbicidal rating,"[18]; 5.6 kg/h, 4 WAT",0 (0-24)
same,pre-emergent herbicidal rating,"[19]; 1.12 kg/h, 4 WAT",0 (0-24)
same,pre-emergent herbicidal rating,"[19]; 5.6 kg/h, 4 WAT",1 (25-49)
COC(=N)C(C)n1c(=O)sc2cc(Br)ccc21 (centres unmarked) [Compound 34],plant growth regulant observations,[1]; 0.112 kg/h,Leaf alteration of new growth.
COC(=N)CCCn1c(=O)sc2ccccc21 [Compound 18],plant growth regulant observations,[1]; 0.112 kg/h,No response.
same,plant growth regulant observations,[1]; 0.56 kg/h,No response.
